For the assay, the target named is ATM (Homo sapiens (Human), UniProt Q13315). Briefly: biochemical. In kind it is biochemical. To be noted: read-out: ATM IC50. The text has this:
Assay a): ATM Biochemical Potency
Data was collected by Caliper.

Structures are written as SMILES.

Sequence of ATM (Q13315 whole entry, looked up): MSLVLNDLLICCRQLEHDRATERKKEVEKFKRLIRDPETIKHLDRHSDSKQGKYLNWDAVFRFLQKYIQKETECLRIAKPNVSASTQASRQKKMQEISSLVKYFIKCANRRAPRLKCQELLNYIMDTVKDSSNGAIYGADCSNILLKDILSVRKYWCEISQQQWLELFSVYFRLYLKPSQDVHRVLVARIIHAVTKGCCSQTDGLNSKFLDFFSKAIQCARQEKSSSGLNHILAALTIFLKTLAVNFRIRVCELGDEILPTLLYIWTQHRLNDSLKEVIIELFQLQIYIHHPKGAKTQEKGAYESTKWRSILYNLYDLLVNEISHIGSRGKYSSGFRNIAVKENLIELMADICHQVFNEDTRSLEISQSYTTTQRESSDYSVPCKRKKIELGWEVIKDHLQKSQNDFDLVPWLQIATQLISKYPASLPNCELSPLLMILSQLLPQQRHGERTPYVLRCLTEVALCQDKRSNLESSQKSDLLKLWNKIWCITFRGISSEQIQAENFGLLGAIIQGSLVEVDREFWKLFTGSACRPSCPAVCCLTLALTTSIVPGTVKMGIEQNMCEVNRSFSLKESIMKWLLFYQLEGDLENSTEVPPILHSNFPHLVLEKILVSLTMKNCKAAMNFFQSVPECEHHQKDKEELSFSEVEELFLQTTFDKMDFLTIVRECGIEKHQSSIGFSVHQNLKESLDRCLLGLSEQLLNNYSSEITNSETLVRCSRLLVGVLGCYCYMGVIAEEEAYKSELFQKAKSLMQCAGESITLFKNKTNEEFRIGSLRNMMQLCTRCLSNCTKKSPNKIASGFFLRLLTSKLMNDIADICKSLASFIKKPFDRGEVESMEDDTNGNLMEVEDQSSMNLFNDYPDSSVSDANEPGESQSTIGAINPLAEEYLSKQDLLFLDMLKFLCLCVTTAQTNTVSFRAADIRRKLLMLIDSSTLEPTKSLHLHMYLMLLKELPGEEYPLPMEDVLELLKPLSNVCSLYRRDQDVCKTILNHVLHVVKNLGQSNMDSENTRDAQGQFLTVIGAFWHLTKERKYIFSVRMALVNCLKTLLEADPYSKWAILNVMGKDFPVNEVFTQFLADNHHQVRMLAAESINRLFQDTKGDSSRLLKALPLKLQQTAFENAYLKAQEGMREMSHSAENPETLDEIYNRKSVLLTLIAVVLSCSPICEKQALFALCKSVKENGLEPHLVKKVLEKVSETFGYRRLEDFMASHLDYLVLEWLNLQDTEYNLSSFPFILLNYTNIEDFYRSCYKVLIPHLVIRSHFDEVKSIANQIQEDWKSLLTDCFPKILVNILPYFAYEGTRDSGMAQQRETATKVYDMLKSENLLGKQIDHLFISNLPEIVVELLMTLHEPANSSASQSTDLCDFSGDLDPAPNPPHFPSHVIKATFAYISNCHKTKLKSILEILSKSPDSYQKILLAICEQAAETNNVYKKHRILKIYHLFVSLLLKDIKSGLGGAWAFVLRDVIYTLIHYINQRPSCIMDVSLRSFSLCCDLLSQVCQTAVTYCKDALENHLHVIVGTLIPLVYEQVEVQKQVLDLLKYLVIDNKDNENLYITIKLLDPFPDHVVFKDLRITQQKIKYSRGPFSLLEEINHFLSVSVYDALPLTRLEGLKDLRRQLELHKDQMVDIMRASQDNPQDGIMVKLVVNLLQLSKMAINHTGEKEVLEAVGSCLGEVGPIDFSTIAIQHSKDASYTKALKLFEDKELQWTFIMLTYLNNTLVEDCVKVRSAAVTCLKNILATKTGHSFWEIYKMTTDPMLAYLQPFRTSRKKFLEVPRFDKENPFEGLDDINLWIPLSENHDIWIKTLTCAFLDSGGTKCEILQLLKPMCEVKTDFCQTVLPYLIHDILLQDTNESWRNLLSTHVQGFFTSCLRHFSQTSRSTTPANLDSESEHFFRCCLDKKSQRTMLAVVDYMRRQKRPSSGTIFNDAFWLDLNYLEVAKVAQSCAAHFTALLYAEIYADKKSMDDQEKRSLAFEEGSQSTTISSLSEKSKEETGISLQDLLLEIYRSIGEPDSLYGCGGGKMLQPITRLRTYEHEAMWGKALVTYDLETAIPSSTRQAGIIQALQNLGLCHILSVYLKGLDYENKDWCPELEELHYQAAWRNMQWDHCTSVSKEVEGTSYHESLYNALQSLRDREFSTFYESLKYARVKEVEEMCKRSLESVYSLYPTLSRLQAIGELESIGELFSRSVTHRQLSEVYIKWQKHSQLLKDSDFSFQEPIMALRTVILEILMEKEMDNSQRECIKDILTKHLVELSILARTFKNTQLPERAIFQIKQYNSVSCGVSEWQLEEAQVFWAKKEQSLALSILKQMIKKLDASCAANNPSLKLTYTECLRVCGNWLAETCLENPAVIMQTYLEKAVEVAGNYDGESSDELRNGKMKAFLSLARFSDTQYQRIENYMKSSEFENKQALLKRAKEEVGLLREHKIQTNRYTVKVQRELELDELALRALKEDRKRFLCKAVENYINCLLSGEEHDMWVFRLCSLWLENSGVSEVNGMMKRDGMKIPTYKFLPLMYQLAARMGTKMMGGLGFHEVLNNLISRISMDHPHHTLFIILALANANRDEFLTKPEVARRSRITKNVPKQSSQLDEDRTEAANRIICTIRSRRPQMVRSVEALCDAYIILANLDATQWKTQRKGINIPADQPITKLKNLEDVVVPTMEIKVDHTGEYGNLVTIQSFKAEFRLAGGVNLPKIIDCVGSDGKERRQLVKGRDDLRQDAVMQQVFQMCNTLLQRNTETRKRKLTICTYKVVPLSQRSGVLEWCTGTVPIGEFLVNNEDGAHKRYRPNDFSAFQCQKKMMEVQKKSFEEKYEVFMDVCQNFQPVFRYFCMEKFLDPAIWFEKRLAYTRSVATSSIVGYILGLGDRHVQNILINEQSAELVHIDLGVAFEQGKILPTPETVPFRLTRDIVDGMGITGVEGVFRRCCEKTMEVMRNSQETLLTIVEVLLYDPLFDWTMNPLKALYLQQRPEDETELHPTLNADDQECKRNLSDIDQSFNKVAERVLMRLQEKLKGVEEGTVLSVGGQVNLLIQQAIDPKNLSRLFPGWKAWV

For `CC(C)n1c(=O)n(C)c2nnc3ccc(-c4ccc(COCCN5CC6C(C5)C6(F)F)nc4)cc3c21` (stereo not shown) [Example 48, 8-(6-((2-(6,6-difluoro-3-azabicyclo[3.1.0]hexan-3-yl)ethoxy)methyl)pyridin-3-yl)-1-isopropyl-3-methyl-1H-imidazo[4,5-c]cinnolin-2(3H)-one], the IC50 was found to be 17 nM.

Regarding `CC(C)n1c(=O)n(C)c2nnc3ccc(-c4ccc(COCCN5CCC6(CCC6)CC5)nc4)cc3c21` [Example 49, 8-(6-((2-(7-azaspiro[3.5]nonan-7-yl)ethoxy)methyl)pyridin-3-yl)-1-isopropyl-3-methyl-1H-imidazo[4,5-c]cinnolin-2(3H)-one], the IC50 was determined as 2.8 nM.

On to `CC(C)n1c(=O)n(C)c2nnc3ccc(-c4ccc(COCCN5CC[C@@H](OC(F)F)C5)nc4)cc3c21` [Example 50, (R)-8-(6-((2-(3-(difluoromethoxy)pyrrolidin-1-yl)ethoxy)methyl)pyridin-3-yl)-1-isopropyl-3-methyl-1H-imidazo[4,5-c]cinnolin-2(3H)-one], for which the IC50 was 11 nM.

In the case of `CC(C)n1c(=O)n(C)c2nnc3ccc(-c4ccc(COCCN5CC[C@H](OC(F)F)C5)nc4)cc3c21` [Example 51, (S)-8-(6-((2-(3-(difluoromethoxy)pyrrolidin-1-yl)ethoxy)methyl)pyridin-3-yl)-1-isopropyl-3-methyl-1H-imidazo[4,5-c]cinnolin-2(3H)-one], the IC50 is 7.6 nM.

Regarding `CC(C)n1c(=O)n(C)c2nnc3ccc(-c4ccc([C@@H](C)OCCN5CCC(OC(F)(F)F)CC5)nc4)cc3c21` [Example 58, (R)-1-isopropyl-3-methyl-8-(6-(1-(2-(4-(trifluoromethoxy)piperidin-1-yl)ethoxy)ethyl)pyridin-3-yl)-1H-imidazo[4,5-c]cinnolin-2(3H)-one], the IC50 is 1.4 nM.

With `CC(C)n1c(=O)n(C)c2nnc3ccc(-c4ccc([C@@H](C)OCCN5CCC(OC(F)(F)F)C5)nc4)cc3c21` (stereo partly shown) [Example 60], the IC50 turned out to be 2.8 nM.

Turning to `CC(C)n1c(=O)n(C)c2nnc3ccc(-c4ccc([C@@H](C)OCCN5CCC(C)(C)C5)nc4)cc3c21` [Example 61, (R)-8-(6-(1-(2-(3,3-dimethylpyrrolidin-1-yl)ethoxy)ethyl)pyridin-3-yl)-1-isopropyl-3-methyl-1H-imidazo[4,5-c]cinnolin-2(3H)-one], the IC50 worked out at 3.4 nM.

Regarding `CO[C@@H]1CCN(CCO[C@@H](C)c2ccc(-c3ccc4nnc5c(c4c3)n(C(C)C)c(=O)n5C)cn2)C1` [Example 64, 1-isopropyl-8-(6-((S)-1-(2-((R)-3-methoxypyrrolidin-1-yl)ethoxy)ethyl)pyridin-3-yl)-3-methyl-1H-imidazo[4,5-c]cinnolin-2(3H)-one], the IC50 came out at 19 nM.

In the case of `CO[C@H]1CCN(CCO[C@@H](C)c2ccc(-c3ccc4nnc5c(c4c3)n(C(C)C)c(=O)n5C)cn2)C1` [Example 65, 1-isopropyl-8-(6-((S)-1-(2-((S)-3-methoxypyrrolidin-1-yl)ethoxy)ethyl)pyridin-3-yl)-3-methyl-1H-imidazo[4,5-c]cinnolin-2(3H)-one], the IC50 was 167 nM.

Consider `CC(C)n1c(=O)n(C)c2nnc3ccc(-c4ccc([C@@H](C)OCCN5CC6CC6C5)nc4)cc3c21` (stereo partly drawn) [Example 66, 8-(6-((1R)-1-(2-(3-azabicyclo[3.1.0]hexan-3-yl)ethoxy)ethyl)pyridin-3-yl)-1-isopropyl-3-methyl-1H-imidazo[4,5-c]cinnolin-2(3H)-one], for which the IC50 is 10 nM.

On to `CC(C)n1c(=O)n(C)c2nnc3ccc(-c4ccc([C@H](C)OCCN5CC6CC6C5)nc4)cc3c21` (stereo partly drawn) [Example 67, 8-(6-((1S)-1-(2-(3-azabicyclo[3.1.0]hexan-3-yl)ethoxy)ethyl)pyridin-3-yl)-1-isopropyl-3-methyl-1H-imidazo[4,5-c]cinnolin-2(3H)-one], for which the IC50 was 158 nM.

In the case of `CC(C)n1c(=O)n(C)c2nnc3ccc(-c4ccc([C@H](C)OCCN5CCC(F)CC5)nc4)cc3c21` [Example 68, (S)-8-(6-(1-(2-(4-fluoropiperidin-1-yl)ethoxy)ethyl)pyridin-3-yl)-1-isopropyl-3-methyl-1H-imidazo[4,5-c]cinnolin-2(3H)-one], the IC50 came to 160 nM.

For `CC(C)n1c(=O)n(C)c2nnc3ccc(-c4ccc([C@H](C)OCCN5CCC(C)(C)CC5)nc4)cc3c21` [Example 72, (S)-8-(6-(1-(2-(4,4-dimethylpiperidin-1-yl)ethoxy)ethyl)pyridin-3-yl)-1-isopropyl-3-methyl-1H-imidazo[4,5-c]cinnolin-2(3H)-one], the IC50 is 50 nM.

For `CC(C)n1c(=O)n(C)c2nnc3ccc(-c4ccc([C@H](C)OCCN5CCC(F)(F)CC5)nc4)cc3c21` [Example 74, (S)-8-(6-(1-(2-(4,4-difluoropiperidin-1-yl)ethoxy)ethyl)pyridin-3-yl)-1-isopropyl-3-methyl-1H-imidazo[4,5-c]cinnolin-2(3H)-one], the IC50 turned out to be 179 nM.

Turning to `CC(C)n1c(=O)n(C)c2nnc3ccc(-c4ccc([C@@H](C)OCCN5CCC(F)(F)CC5)nc4)cc3c21` [Example 75, (R)-8-(6-(1-(2-(4,4-difluoropiperidin-1-yl)ethoxy)ethyl)pyridin-3-yl)-1-isopropyl-3-methyl-1H-imidazo[4,5-c]cinnolin-2(3H)-one], the IC50 stood at 19 nM.

Regarding `CC(C)n1c(=O)n(C)c2nnc3ccc(-c4ccc([C@@H](C)OCCN5CC[C@H](C)C5)nc4)cc3c21` [Example 78, 1-isopropyl-3-methyl-8-(6-((R)-1-(2-((S)-3-methylpyrrolidin-1-yl)ethoxy)ethyl)pyridin-3-yl)-1H-imidazo[4,5-c]cinnolin-2(3H)-one], the IC50 stood at 6.4 nM.

For `CC(C)n1c(=O)n(C)c2nnc3ccc(-c4ccc([C@@H](C)OCCN5CC[C@@H](S(C)(=O)=O)C5)nc4)cc3c21` [Example 79, 1-isopropyl-3-methyl-8-(6-((R)-1-(2-((R)-3-(methylsulfonyl)pyrrolidin-1-yl)ethoxy)ethyl)pyridin-3-yl)-1H-imidazo[4,5-c]cinnolin-2(3H)-one], the IC50 came to 37 nM.

As to `CC(C)n1c(=O)n(C)c2nnc3ccc(-c4ccc([C@@H](C)OCCN5CC6(COC6)C5)nc4)cc3c21` [Example 81, (R)-8-(6-(1-(2-(2-oxa-6-azaspiro[3.3]heptan-6-yl)ethoxy)ethyl)pyridin-3-yl)-1-isopropyl-3-methyl-1H-imidazo[4,5-c]cinnolin-2(3H)-one], the IC50 was 3 nM.

Turning to `CC(C)n1c(=O)n(C)c2nnc3ccc(-c4ccc([C@@H](C)OCCN5CCC6(CCO6)CC5)nc4)cc3c21` [Example 82, (R)-8-(6-(1-(2-(1-oxa-7-azaspiro[3.5]nonan-7-yl)ethoxy)ethyl)pyridin-3-yl)-1-isopropyl-3-methyl-1H-imidazo[4,5-c]cinnolin-2(3H)-one], the IC50 was 3.4 nM.

`CC(C)n1c(=O)n(C)c2nnc3ccc(-c4ccc([C@@H](C)OCCN5CCC(C6COC6)CC5)nc4)cc3c21` [Example 83, (R)-1-isopropyl-3-methyl-8-(6-(1-(2-(4-(oxetan-3-yl)piperidin-1-yl)ethoxy)ethyl)pyridin-3-yl)-1H-imidazo[4,5-c]cinnolin-2(3H)-one]: the IC50 turned out to be 2.4 nM.

Turning to `CC(C)n1c(=O)n(C)c2nnc3ccc(-c4ccc([C@@H](C)OCCN5CCC(C(F)(F)F)CC5)nc4)cc3c21` [Example 84, (R)-1-isopropyl-3-methyl-8-(6-(1-(2-(4-(trifluoromethyl)piperidin-1-yl)ethoxy)ethyl)pyridin-3-yl)-1H-imidazo[4,5-c]cinnolin-2(3H)-one], the IC50 stood at 1.9 nM.

Take `COC[C@@H]1CCN(CCO[C@H](C)c2ccc(-c3ccc4nnc5c(c4c3)n(C(C)C)c(=O)n5C)cn2)C1` [Example 85, 1-isopropyl-8-(6-((R)-1-(2-((R)-3-(methoxymethyl)pyrrolidin-1-yl)ethoxy)ethyl)pyridin-3-yl)-3-methyl-1H-imidazo[4,5-c]cinnolin-2(3H)-one]: the IC50 turned out to be 3.4 nM.

In the case of `CC(C)n1c(=O)n(C)c2nnc3ccc(-c4ccc([C@@H](C)OCCN5CCCCC5)nc4)cc3c21` [Example 87, (R)-1-isopropyl-3-methyl-8-(6-(1-(2-(piperidin-1-yl)ethoxy)ethyl)pyridin-3-yl)-1H-imidazo[4,5-c]cinnolin-2(3H)-one], the IC50 is 8.2 nM.

Consider `CC(C)n1c(=O)n(C)c2nnc3ccc(-c4ccc([C@@H](C)OCCN5CCC6(CCC6)C5)nc4)cc3c21` [Example 89, (R)-8-(6-(1-(2-(6-azaspiro[3.4]octan-6-yl)ethoxy)ethyl)pyridin-3-yl)-1-isopropyl-3-methyl-1H-imidazo[4,5-c]cinnolin-2(3H)-one], for which the IC50 is 1.6 nM.

For the molecule `CC(C)n1c(=O)n(C)c2nnc3ccc(-c4ccc([C@@H](C)OCCN5CCC(C)(C#N)C5)nc4)cc3c21` (stereo partly drawn) [Example 90, 1-(2-((R)-1-(5-(1-isopropyl-3-methyl-2-oxo-2,3-dihydro-1H-imidazo[4,5-c]cinnolin-8-yl)pyridin-2-yl)ethoxy)ethyl)-3-methylpyrrolidine-3-carbonitrile], the IC50 turned out to be 11 nM.

Consider `CC(C)n1c(=O)n(C)c2nnc3ccc(-c4ccc([C@@H](C)OCCN5CCC(C#N)CC5)nc4)cc3c21` [Example 91, (R)-1-(2-(1-(5-(1-isopropyl-3-methyl-2-oxo-2,3-dihydro-1H-imidazo[4,5-c]cinnolin-8-yl)pyridin-2-yl)ethoxy)ethyl)piperidine-4-carbonitrile], for which the IC50 was determined as 8.5 nM.

Take `CC(C)OC1CCN(CCO[C@H](C)c2ccc(-c3ccc4nnc5c(c4c3)n(C(C)C)c(=O)n5C)cn2)CC1` [Example 92, (R)-8-(6-(1-(2-(4-isopropoxypiperidin-1-yl)ethoxy)ethyl)pyridin-3-yl)-1-isopropyl-3-methyl-1H-imidazo[4,5-c]cinnolin-2(3H)-one]: the IC50 came out at 1.5 nM.

`CC(C)O[C@@H]1CCN(CCO[C@H](C)c2ccc(-c3ccc4nnc5c(c4c3)n(C(C)C)c(=O)n5C)cn2)C1` [Example 93, 8-(6-((R)-1-(2-((R)-3-isopropoxypyrrolidin-1-yl)ethoxy)ethyl)pyridin-3-yl)-1-isopropyl-3-methyl-1H-imidazo[4,5-c]cinnolin-2(3H)-one]: the IC50 came out at 4.9 nM.

For orientation: IC50 means the midpoint of a concentration-inhibition curve.

The values are drawn from patent publication US20240207263A1, “SELECTIVE MODULATORS OF ATAXIA TELA[…] (ATM) KINASE AND USES THEREOF” (priority 2021, published 2024).
